Data published in patent US8637665B2, “Pyrrolo[2,L-C][L,4]benzodiazepine-benzothiazole or benzoxazole conjugates linked through piperazine moiety and process for the preparation thereof” (priority 2010, dated 2014).
Read-outs that look alike come from different tables or passages of the source.

What was measured:
[1] = tested on: KB (oral cancer) cell line; experiment: In vitro anticancer activity, SRB assay, KB; type: cell-based, human; conditions: Homo sapiens, 48 h; for GI50: read-out: GI50 KB, 48 h drug exposure, SRB, mean of three determinations; for CC50: read-out: LC50 KB, 50% cell death, 48 h drug exposure, SRB
Experimental: (§1) Anticancer activity: In vitro biological activity studies were carried out at the Advance Center for Treatment Research & Education in Cancer (ACTREC), Navi Mumbai.
(§2) The compounds were evaluated for in vitro anticancer activity against eight tumour cells lines derived from seven cancer types (non-small-cell lung, colon, oral, cervix, ovarian, prostate, and breast cancer) as shown in Table 2. For each compound, dose response curves for each cell line were measured at a minimum of five concentrations at 10 fold dilutions. A protocol of 48 h continuous drug exposure was used and a sulforhodamine B (SRB) protein assay was used to estimate cell viability or growth. The concentration causing 50% cell growth inhibition (GI50) and 50% cell death (LC50, −50% growth) compared with the control was calculated. Compounds 9a-9l have been evaluated for their in vitro cytotoxicity in eight cell lines from seven human cancer types of lung (Hop-62, A-549) colon (COLO-205) cervix (Si—Ha), ovary (A-2780), prostate (PC3) breast (MCF7), oral (KB). The results are expressed as percent of cell growth determined relative to that of untreated control cells (Table-8 and table-9).

[2] = tested on: duplex-form calf thymus DNA (CT-DNA); experiment: Thermal denaturation studies with calf thymus DNA (DNA binding affinity); conditions: [PBD]:[DNA] 1:5, CT-DNA 100 μM, ligand 20 μM, pH 7.00
Experimental: Compounds have been subjected to thermal denaturation studies with duplex-form calf thymus DNA (CT-DNA) using an modification of a reported procedure (Newman, M. S. Carcinog-compr. Surv. 1976,1, 203; (b) Hecht, S. S.; Loy, M.; Hoffman, Carcinog-compr. Surv. 1976, 1, 325). Working solutions in aqueous buffer (10 mM NaH2PO4/Na2HPO4, 1 mM Na2EDTA, pH 7.00+0.01) containing CT-DNA (100 μm in phosphate) and the PBD (20 μm) have been prepared by addition of concentrated PBD solutions in DMSO to obtain a fixed [PBD]/[DNA] molar ratio of 1:5. The DNA-PBD solutions have been incubated at 37° C. for 0 and 18 h prior to analysis. Samples have been monitored at 260 using a Beckman DU-800 spectrophotometer fitted with high performance temperature controller, and heated at 1° C. min^−1 in the 40-110° C. range. DNA helix→coil transition temperatures (Tm) have been obtained from the maxima in the d(A260)/dT derivative plots. Drug-induced alterations in DNA melting behavior are given by: ΔTm=Tm(DNA+PBD)−Tm(DNA alone), where the Tm value for the PBD-free CT-DNA is 69.1±0.01.
The DNA binding activity for these novel C8-linked benzothiazole, benzoxazole-PBD hybrids has been examined by thermal denaturation studies using calf thymus (CT) DNA. […] The data for the compounds 9a-n is included in Table 7 for comparison.

[3] = tested on: PC 3 (prostate cancer) cell line; experiment: cells; type: cell-based; conditions: Homo sapiens, 48 h; for GI50: read-out: GI50 PC 3; for CC50: read-out: LC50 Pc 3, 50% cell death, 48 h drug exposure, SRB
Experimental: as §1, §2

[4] = tested on: HOP 62 (lung cancer) cell line; experiment: cells; type: cell-based; conditions: for GI50: mean of three determinations; for LC50: read-out: LC50 HOP 62, 50% cell death
Experimental: as §1, §2

[5] = tested on: MCF 7 (breast cancer) cell line; experiment: cells; type: cell-based; conditions: Homo sapiens, MCF7, 48 h; for GI50: read-out: GI50 MCF 7; for LC50 (concentration causing 50% cell death): read-out: LC50 MCF 7, 50% cell death, 48 h drug exposure, SRB
Experimental: as §1, §2

[6] = tested on: Colo 205 (colon cancer) cell line; experiment: cells; type: cell-based; conditions: Homo sapiens, COLO 205, 48 h; for GI50: read-out: GI50 Colo 205, 48 h drug exposure, SRB, mean of three determinations; for CC50: read-out: LC50 Colo 205
Experimental: as §1, §2

[7] = tested on: A 2780 (ovary cancer) cell line; experiment: cells; type: cell-based; conditions: Homo sapiens, A2780, 48 h; for GI50: read-out: GI50 A 2780, 48 h drug exposure, SRB, mean of three determinations; for CC50: read-out: LC50 A 2780, 50% cell death, 48 h drug exposure, SRB
Experimental: as §1, §2

[8] = tested on: A 549 (lung cancer) cell line; experiment: cells; type: cell-based; conditions: Homo sapiens, A549, 48 h; for GI50: read-out: GI50 A 549, 48 h drug exposure, SRB, mean of three determinations; for CC50: read-out: LC50 A 549, 50% cell death, 48 h drug exposure, SRB
Experimental: as §1, §2

[9] = tested on: SiHa (cervix cancer) cell line; experiment: cells; type: cell-based; conditions: Homo sapiens, SiHa, 48 h; for GI50: read-out: GI50 SiHa, 48 h drug exposure, SRB, mean of three determinations; for LC50 (concentration causing 50% cell death): read-out: LC50 SiHa, 50% cell death, 48 h drug exposure, SRB
Experimental: as §1, §2

[10] = tested on: eight tumour cells lines derived from seven cancer types; experiment: In vitro anticancer activity, SRB assay, panel of eight cell lines; type: cell-based; conditions: Homo sapiens, range over the eight cell lines per compound; read-out: GI50 range against cancer cell lines
Experimental: as §1, §2

[11] = Homo sapiens, HOP-62, 48 h, read-out: GI50 HOP 62, 48 h drug exposure, SRB
[12] = Homo sapiens, HOP-62, 48 h, 48 h drug exposure, SRB

SMILES | GI50 [1] [nM] | CC50 [1] [nM] | ΔTm after incubation at 37° C. for 0 h [2] [°C] | ΔTm after incubation at 37° C. for 18 h [2] [°C] | GI50 [3] [nM] | CC50 [3] [nM] | GI50 [4, 11] [nM] | LC50 [4, 12] [nM] | GI50 [5] [nM] | LC50 (concentration causing 50% cell death) [5] [nM] | GI50 [6] [nM] | CC50 [6] [nM] | GI50 [7] [nM] | CC50 [7] [nM] | GI50 [8] [nM] | CC50 [8] [nM] | GI50 [9] [nM] | LC50 (concentration causing 50% cell death) [9] [nM] | GI50 [10] [nM] | GI50 ([4]; read-out: GI50 HOP 62, 48 h drug exposure, SRB) [nM]
COc1cc2c(cc1OCCCN1CCN(CCCOc3ccc(-c4nc5ccccc5s4)cc3)CC1)N=C[C@@H]1CCCN1C2=O [Compound 9a] | 120 | 2400 | 10.2 | 10.8 | 120 | 28000 | 100 | 27000 | < 10 | 1900 | 100 | > 100000 | 108 | 23000 | 130 | > 100000 | 130 | 27500 | ≤ 130 | 
COc1cc2c(cc1OCCCN1CCN(CCCOc3cccc(-c4nc5ccccc5s4)c3)CC1)N=C[C@@H]1CCCN1C2=O [Compound 9d, 7-Methoxy-8-[3-(4-{3-[3(1,3-benzothiazol-2-yl)-phenoxy]propyl}piperazin-1-yl)propyl]oxy-(11aS)-1,2,3,11a-tetrahydro-5H-pyrrolo[2,1-c][1,4]benzodiazepin-5-one] | 110 | 2300 | 11.2 | 11.5 | < 10 | 28000 | < 10 | 27000 | 10 | 2100 | 110 | > 100000 | 99 | 2400 | < 10 | > 100000 | 120 | 26000 | ≤ 120 | 
COc1cc2c(cc1OCCCN1CCN(CCCOc3cccc(-c4nc5ccccc5o4)c3)CC1)N=C[C@@H]1CCCN1C2=O [Compound 9k, 7-Methoxy-8-[3-(4-{3-[3(1,3-benzoxazol-2-yl)-phenoxy]propyl}piperazin-1-yl)propyl]oxy-(11aS)-1,2,3,11a-tetrahydro-5H-pyrrolo[2,1-c][1,4]benzodiazepin-5-one] | 110 |  | 9.7 | 10.2 | < 10 | 26000 |  | 25000 | < 10 | 2600 | 170 | > 100000 | 86 | 2160 | < 10 | > 100000 | 130 | 27800 | ≤ 170 | 10
COc1cc2c(cc1OCCCCN1CCN(CCCCOc3ccc(-c4nc5ccc(F)cc5s4)cc3)CC1)N=C[C@@H]1CCCN1C2=O [Compound 9g, 7-Methoxy-8-[4-(4-{4-[4(6-fluoro-1,3-benzothiazol-2-yl)-phenoxy]butyl}piperazin-1-yl)butyl]oxy-(11aS)-1,2,3,11a-tetrahydro-5H-pyrrolo[2,1-c][1,4]benzodiazepin-5-one] | 160 | > 100000 | 12.3 | 12.6 | 160 | 31000 | 160 | > 100000 | 140 | 2400 | 100 | > 100000 | 147 | 2250 | < 10 | > 100000 | 168 | 311 | ≤ 168 | 
